From patent publication US7879885B2, “Thioalkeneamides as transketolase inhibitors” (Array Biopharma, Inc., priority 2004, dated 2011)

Biological target: T1, HCT116 TK (cellular transketolase, colon carcinoma HCT116) (Homo sapiens, UniProt P29401)
T1 construct: endogenous in cells; host or cells: HCT116 colon carcinoma cells
T1 sequence (P29401 1-623): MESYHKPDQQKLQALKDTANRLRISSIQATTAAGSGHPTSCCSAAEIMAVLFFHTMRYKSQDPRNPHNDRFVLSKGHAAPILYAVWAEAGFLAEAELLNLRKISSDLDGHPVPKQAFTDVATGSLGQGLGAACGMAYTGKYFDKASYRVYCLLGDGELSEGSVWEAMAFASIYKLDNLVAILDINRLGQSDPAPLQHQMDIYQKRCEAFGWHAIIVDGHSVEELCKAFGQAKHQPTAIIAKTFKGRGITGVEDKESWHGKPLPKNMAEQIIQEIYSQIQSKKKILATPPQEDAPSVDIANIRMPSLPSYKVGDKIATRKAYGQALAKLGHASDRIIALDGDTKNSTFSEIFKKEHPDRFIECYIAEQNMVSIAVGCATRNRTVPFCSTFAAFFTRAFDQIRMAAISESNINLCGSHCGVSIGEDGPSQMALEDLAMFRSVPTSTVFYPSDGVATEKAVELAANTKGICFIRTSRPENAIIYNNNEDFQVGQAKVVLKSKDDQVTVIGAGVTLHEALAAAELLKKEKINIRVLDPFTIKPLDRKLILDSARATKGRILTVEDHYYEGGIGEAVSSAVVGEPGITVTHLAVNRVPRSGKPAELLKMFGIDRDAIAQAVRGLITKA
Test: Cellular assay: transketolase activity in lysates of treated HCT116 cells
Type: cell-based
Settings: colon carcinoma HCT116, thiamine-free DMEM, 48 hours treatment, mean
Protocol: Log-phase cells were trypsinized, washed and resuspended in thiamine-free DMEM. Optimization of the initial cell counts was carried out for each cell line prior to IC50 measurements. […] Using this initial cell count, IC50 could be monitored for six days.
Media containing 8,000 cells (95 μl) were used to seed individual wells in a 96-well clear-bottom cell cultured-treated sterile plate. Inhibitor compounds were dissolved in 100% DMSO as 10 mM solutions. Serial dilutions were then made in 100% DMSO to make up a 100× stock, then diluted to 20× in double-deionized H2O (ddH2O). Twenty-four hours after seeding, 5 μl of 20× inhibitor compound stock solution was added to the cells so that the final concentration of DMSO was 1%. Media were changed after 24 hours. Forty-eight hours after inhibitor compound treatment, the plates were inverted to remove media and blotted on a paper towel. The plates were then either subjected to enzymatic reactions immediately or were frozen at −20° C. for future assays.
Lysis buffer (20 mM HEPES, pH 7.5, 1 mM EDTA, 0.2 g/l Triton X-100® and 0.2 g/L sodium deoxycholate, supplemented with 1 mM DTT and 1 mM PMSF just before use, 80 μl) were added to each well of the assay plate and allow cell lysis at RT with shaking. Then 15 ul of 5× assay buffer containing final concentrations of 50 mM HEPES, 40 mM KCl, 2.5 mM MgCl2, 5 mM NaArsenate, 1 mM NAD, 2 unit/ml glyceraldehyde-3-phosphate dehydrogenase (GAPDH) was added to the 80 ul of lysate. Reaction kinetics were monitored on a fluorescent plate reader to allow any possible background activity via GAPDH to burn out. Then 5 ul of substrate mix containing final concentrations of 0.5 mM ribose-5-phosphate and 0.5 mM xylulose-5-phosphate was added to initiate the reaction. Monitor reaction kinetics were monitored using a fluorescent plate reader and the slope of the initial linear range was recorded as the velocity of the reaction (FU/min). Enzymatic inhibition was expressed as percent of control wells that were not treated with compounds. The values (y) were plotted as function of the log concentration (x) and fitted to a sigmoidal dose-response curve with variable slopes that bears the equation: y=bottom+(top−bottom)/(1+10^((log EC50-x)*hillslope)).

Compared with C/C(=C(\CCO)SSCCC(=O)O)N(C=O)Cc1ccc(C)nc1N, C/C(=C(\CCO)SSCCO)N(C=O)Cc1ccc(C)nc1N is 4-fold lower in IC50: 52 nM for the first, 13 nM for the second.

Going from C/C(=C(\CCO)SS/C(CCO)=C(/C)N(C=O)Cc1ccc(Cl)nc1N)N(C=O)Cc1ccc(Cl)nc1N to C/C(=C(\CCO)SS/C(CCO)=C(/C)N(C=O)Cc1ccc(C)nc1N)N(C=O)Cc1ccc(C)nc1N, the IC50 rises from 5.27 nM to 10 nM (1.9-fold). The first is the more potent here.

C/C(=C(\CCO)SSCC1CCCO1)N(C=O)Cc1ccc(C)nc1N (stereo not drawn) and CCCSS/C(CCO)=C(/C)N(C=O)Cc1ccc(C)nc1N are within 1.5-fold of each other in IC50: 24 nM for the first, 25 nM for the second.

Compared with CC(=O)OCC/C(SC(C)=O)=C(\C)N(C=O)Cc1ccc(C)nc1N, CC(=O)OCC/C(SCOC(=O)N(C)C)=C(\C)N(C=O)Cc1ccc(C)nc1N is 530-fold higher in IC50: 50 nM for the first, 26300 nM for the second.

Compared with CNC(=O)OCS/C(CCO)=C(/C)N(C=O)Cc1ccc(C)nc1N, C/C(=C(\CCO)SCOC(=O)N(C)C)N(C=O)Cc1ccc(C)nc1N is 10-fold higher in IC50: 50 nM for the first, 507 nM for the second. The first is the more potent here.

First: C/C(=C(\CCOC(=O)c1ccccc1)SC(=O)c1ccccc1)N(C=O)Cc1ccc(C)nc1N
Second: CC(=O)OCC/C(SC(=O)c1ccccc1)=C(\C)N(C=O)Cc1ccc(C)nc1N
The IC50 of the first is 3.9-fold lower: 28 nM for the first, 108 nM for the second. The first is the more potent here.

Compared with CC(=O)OCC/C(SCOC(=O)C(C)(C)C)=C(\C)N(C=O)Cc1ccc(C)nc1N, C/C(=C(\CCO)SCOC(=O)C(C)(C)C)N(C=O)Cc1ccc(C)nc1N is 4.6-fold higher in IC50: 25 nM for the first, 116 nM for the second. The first is the more potent here.

Going from CC(=O)N(Cc1ccc(C)nc1N)/C(C)=C(/CCO)SS/C(CCO)=C(/C)N(Cc1ccc(C)nc1N)C(C)=O to CC(=O)OCC/C(SS/C(CCOC(C)=O)=C(/C)N(C=O)Cc1ccc(C)nc1N)=C(\C)N(C=O)Cc1ccc(C)nc1N, the IC50 falls from 32 nM to 8 nM (4-fold). The second is the more potent here.

Going from C/C(=C(\CCO)SSCCN1CCCC1)N(C=O)Cc1ccc(C)nc1N to C/C(=C(\CCO)SCCN1CCCCC1)N(C=O)Cc1ccc(C)nc1N, the IC50 rises from 198 nM to 3700 nM (19-fold).

CCCSS/C(CCO)=C(/C)N(C=O)Cc1ccc(Cl)nc1N and CCCCS/C(CCO)=C(/C)N(C=O)Cc1ccc(C)nc1N are within 1.5-fold of each other in IC50: 7730 nM for the first, 6460 nM for the second.

Going from Cc1ccc(CN(C=O)/C=C(/CCO)SS/C(=C\N(C=O)Cc2ccc(C)nc2N)CCO)c(N)n1 to C/C(=C(\CCO)SS/C(CCO)=C(/C)N(C=O)Cc1cccnc1N)N(C=O)Cc1cccnc1N, the IC50 falls from 102000 nM to 479 nM (210-fold). The second is the more potent here.

Compared with CCC(C)SS/C(CCO)=C(/C)N(C=O)Cc1ccc(C)nc1N (stereo not drawn), C/C(=C(\CCO)SSCCN1CCOCC1)N(C=O)Cc1ccc(C)nc1N is 3.6-fold lower in IC50: 253 nM for the first, 70 nM for the second. The second is the more potent here.

Compared with C/C(=C1\CCOC(=O)S1)N(C=O)Cc1ccc(C)nc1N, C/C(=C(\CCO)SCCS(=O)(=O)c1ccccc1)N(C=O)Cc1ccc(C)nc1N is 120-fold higher in IC50: 15 nM for the first, 1870 nM for the second.

First: CC(=O)Nc1nc(C)ccc1CN(C=O)/C(C)=C(/CCOC(C)=O)SCOC(=O)N(C)C
Second: CC(=O)Nc1nc(C)ccc1CN(C=O)/C(C)=C(/CCOC(C)=O)SCOC(=O)C(C)(C)C
The IC50 of the first is 7.8-fold higher: 19400 nM for the first, 2480 nM for the second. The second is the more potent here.

First: CCCSS/C(CCOP(=O)(OCC)OCC)=C(/C)N(C=O)Cc1ccc(C)nc1N
Second: CCOP(=O)(OCC)OCC/C(SC(=O)c1ccccc1)=C(\C)N(C=O)Cc1ccc(C)nc1N
The IC50 of the first is 6.9-fold lower: 1040 nM for the first, 7160 nM for the second.
